Here are results for ten compounds from patent US20250115598A1 (Anaxis Pharma Pty Ltd, priority 2021, published 2025).

One test deals with human MLKL (full length) (Homo sapiens (Human), UniProt Q8NB16). The test is described as follows: KINOMEscan binding assay, human MLKL (full length). The settings on record: hMLKL, Table 25; read-out: MLKL (KD). In short, it runs like this:
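Assay principle: test compound competes with immobilized bead ligand for kinase; kinase retained, then eluted, is counted by qPCR. Conditions were 1% DMSO final with 11 compound concentrations in 3-fold steps, 30,000 nM top for most. The Hill equation with slope −1 gave Kd.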

Test [1] concerns U937 human histiocytic leukemia cell line. The test is described as follows: Cellular assay: inhibition of TSQ induced necroptosis, CellTitre-Glo viability. The settings on record: Homo sapiens, U-937; U937 cells, 48 hours, TSQ cocktail, Table 26; read-out: Inhibition of TSQ-induced necroptosis (IC50 cell-based assay). The procedure: Cellular Assay: Screening Compounds for Inhibition of TSQ Induced Necroptosis, 384 Well Plate Format.
(§1) • Cell Line ID: U937 human histiocytic leukemia cell line. • Cell Concentration (cells/well): Final cell density is 20000 cells per well. • Cell growth medium: HT-RPMI medium+7.4% Fetal Bovine Serum (FBS). Cells are cultured in Corning 150 cm^2 tissue culture flasks with vented caps at 37° C./5% CO2. • Incubation: Plates were incubated at 37° C./5% CO2 in a humidified incubator for 48 hours following addition of compounds and death stimuli (TSQ cocktail). • Compound concentration: 36 μM starting concentration, 1:3 dilution, 10 point • DMSO final concentration (% v/v): 0.3%. Compounds in TSQ Cocktail (T: TNF; S: Smac Mimetic; Q: Q-VD-OPh) and their Final Concentrations: • hTNF-Fc (100 ng/ml)—produced by standard procedures as shown in Bossen et al., J. Biol. Chem., 2006, 281(20), 13964-13971. • Compound A (500 nM)—Smac mimetic, Tetralogic and SYNthesis med chem • Q-VD-OPh (10 μM)—MP Biomedicals
(§2) The cellular assay was carried out according to the following steps: • 1. Each well was prepared by sequential addition of: • a. DMSO (control; columns 1-2 and 23-24) or compound in DMSO—addition was performed using acoustic transfer of nL volumes of stock compound to give final test concentrations of 36, 12, 4, 1.3, 0.44, 0.148, 0.049, 0.016, 0.005 and 0.002 μM. All wells were backfilled with DMSO to a final total volume in the well of 100 nL. • b. Following compound/DMSO addition in step (a), 40 μL of cell suspension (5×10^5 cells/mL) was added to provide a final cell concentration of 20,000 cells per well, and • c. Following cell addition in step (b), 10 μL of 5×TSQ cocktail (except to positive controls; columns 1 and 23) was added to each well. • 2. After 48 hours, plate was removed from the 37° C. incubator and equilibrated to room temperature for 45 minutes. • 3.15 μL of room temperature CellTitre-Glo2™ (Promega™) was added to each well. • 4. Shook plates for 2 minutes (˜600 rpm) and incubated at room temperature for 15 minutes to allow signal to stabilise. • 5. Read luminescence readout on a plate reader.
Percent viability was calculated for each compound according to equation (2):
(§3) • Assay involving the TSQ cocktail (T: TNF; S: Smac mimetic; Q: Q-VD-OPh): TSQ treatment ensures that cells specifically undergo necroptotic cell death. TNF activates the TNF receptor, Smac mimetic directs the signal away from proinflammatory signaling and toward the RIPK1/RIPK3-mediated cell death pathways, and Q-VD-OPh ensures that the apoptotic response is blocked leaving only the programmed necrosis response. The compounds' activity (solution in DMSO) tested in this TSQ-induced assay was evaluated by determining the number of viable cells in culture by measuring the amount of ATP present as measured by CelltiterGlo. • Counter screen: In parallel, all compounds were tested for their ability to affect cell viability. The same U937 cells were treated with compound in DMSO without the TSQ cocktail. This counter screen enabled evaluation of off-target effects. In this case, cell viability was measured by CelltiterGlo.

The next test has as its system U937 cells. The test is described as follows: Counter screen: cell viability without the TSQ cocktail (off-target effect). The settings on record: Homo sapiens, U-937, Table 26, read-out: Off-target effect (IC50 cell-based assay). The arrangement: species or system human. On the procedure: as §1, §2, §3
(In general: Counterscreens check selectivity or assay interference.)

What is called Kd is the equilibrium constant for the complex coming apart. What is called IC50 is the concentration that inhibits the measured activity by half.

Sequence of human MLKL (full length) (Q8NB16 whole entry): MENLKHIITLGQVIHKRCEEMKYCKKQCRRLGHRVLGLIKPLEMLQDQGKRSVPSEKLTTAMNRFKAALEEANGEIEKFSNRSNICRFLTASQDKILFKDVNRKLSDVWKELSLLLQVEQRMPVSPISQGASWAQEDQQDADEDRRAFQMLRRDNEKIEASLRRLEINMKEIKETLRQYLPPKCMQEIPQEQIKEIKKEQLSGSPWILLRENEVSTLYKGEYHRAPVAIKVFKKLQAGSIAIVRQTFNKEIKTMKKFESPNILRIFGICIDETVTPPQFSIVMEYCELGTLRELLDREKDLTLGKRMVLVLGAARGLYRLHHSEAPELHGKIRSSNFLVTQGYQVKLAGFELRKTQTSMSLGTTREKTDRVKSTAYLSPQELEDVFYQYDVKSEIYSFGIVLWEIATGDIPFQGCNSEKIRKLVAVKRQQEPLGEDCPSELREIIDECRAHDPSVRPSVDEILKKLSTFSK

Regarding `CCS(=O)(=O)Nc1ccc(-c2n[nH]c3c(-c4cnn(CCC(=O)N[C@H](C(=O)N5C[C@H](O)C[C@H]5C(=O)NCc5ccc(-c6scnc6C)cc5)C(C)(C)C)c4)cnc(N)c23)cc1OCc1ccc(F)cc1` [Compound 1001, (2S,4R)-1-[(2S)-2-{3-[4-(4-amino-3-{4-ethanesulfonamido-3-[(4-fluorophenyl)methoxy]phenyl}-1H-pyrazolo[4,3-c]pyridin-7-yl)-1H-pyrazol-1-yl]propanamido}-3,3-dimethylbutanoyl]-4-hydroxy-N-{[4-(4-methyl-1,3-thiazol-5-yl)phenyl]methyl}pyrrolidine-2-carboxamide], the Kd at human MLKL (full length) is less than 10 nM. Also, the 50% inhibitory concentration (IC50) in test [1] is more than 10000 nM; in the test with U937 cells, more than 10 µM.
Turning to `CCS(=O)(=O)Nc1ccc(-c2n[nH]c3c(-c4cnn(CCCCC(=O)N[C@H](C(=O)N5C[C@H](O)C[C@H]5C(=O)NCc5ccc(-c6scnc6C)cc5)C(C)(C)C)c4)cnc(N)c23)cc1OCc1ccc(F)cc1` [Compound 1002, (2S,4R)-1-[(2S)-2-{5-[4-(4-amino-3-{4-ethanesulfonamido-3-[(4-fluorophenyl)methoxy]phenyl}-1H-pyrazolo[4,3-c]pyridin-7-yl)-1H-pyrazol-1-yl]pentanamido}-3,3-dimethylbutanoyl]-4-hydroxy-N-{[4-(4-methyl-1,3-thiazol-5-yl)phenyl]methyl}pyrrolidine-2-carboxamide], on human MLKL (full length), the Kd is less than 10 nM. Further, the results for the IC50 (in test [1]; in the test on U937 cells) were more than 10000 nM and more than 10 µM, respectively.
For `CCS(=O)(=O)Nc1ccc(-c2n[nH]c3c(-c4cnn(CCOCC(=O)N[C@H](C(=O)N5C[C@H](O)C[C@H]5C(=O)NCc5ccc(-c6scnc6C)cc5)C(C)(C)C)c4)cnc(N)c23)cc1OCc1ccc(F)cc1` [Compound 1004, (2S,4R)-1-[(2S)-2-(2-{2-[4-(4-amino-3-{4-ethanesulfonamido-3-[(4-fluorophenyl)methoxy]phenyl}-1H-pyrazolo[4,3-c]pyridin-7-yl)-1H-pyrazol-1-yl]ethoxy}acetamido)-3,3-dimethylbutanoyl]-4-hydroxy-N-{[4-(4-methyl-1,3-thiazol-5-yl)phenyl]methyl}pyrrolidine-2-carboxamide], in that order: less than 10 nM, more than 10000 nM and more than 10 µM.
`Cc1ncsc1-c1ccc(CNC(=O)[C@@H]2C[C@H](O)CN2C(=O)[C@@H](NC(=O)COCCOCCn2cc(-c3cnc(N)c4c(-c5ccc(NS(=O)(=O)C(F)F)c(O[C@@H](C)c6ccc(F)cc6)c5)nn(C)c34)cn2)C(C)(C)C)cc1` [Compound 1007, (2S,4S)-1-[(2S)-2-(2-{2-[2-(4-{4-amino-3-[4-(difluoromethanesulfonamido)-3-[(1S)-1-(4-fluorophenyl)ethoxy]phenyl]-1-methyl-1H-pyrazolo[4,3-c]pyridin-7-yl}-1H-pyrazol-1-yl)ethoxy]ethoxy}acetamido)-3,3-dimethylbutanoyl]-4-hydroxy-N-{[4-(4-methyl-1,3-thiazol-5-yl)phenyl]methyl}pyrrolidine-2-carboxamide]: at human MLKL (full length), the Kd was in the range of 10 to 1000 nM. Besides, the IC50 was less than 1000 nM in test [1] and more than 10 µM in the test on U937 cells.
For `Cc1ncsc1-c1ccc(CNC(=O)[C@@H]2C[C@@H](O)CN2C(=O)[C@@H](NC(=O)COCCN2CCC(n3cc(-c4cnc(N)c5c(-c6ccc(NS(=O)(=O)C(F)F)c(O[C@@H](C)c7ccc(F)cc7)c6)nn(C)c45)cn3)C2)C(C)(C)C)cc1` (stereo partly drawn) [Compound 1013, (2S,4R)-1-[(2S)-2-(2-{2-[3-(4-{4-amino-3-[4-(difluoromethanesulfonamido)-3-[(1S)-1-(4-fluorophenyl)ethoxy]phenyl]-1-methyl-1H-pyrazolo[4,3-c]pyridin-7-yl}-1H-pyrazol-1-yl)pyrrolidin-1-yl]ethoxy}acetamido)-3,3-dimethylbutanoyl]-4-hydroxy-N-{[4-(4-methyl-1,3-thiazol-5-yl)phenyl]methyl}pyrrolidine-2-carboxamide], the Kd on human MLKL (full length) is less than 10 nM. Moreover, the figures for the 50% inhibitory concentration (IC50) (in test [1]; with U937 cells) were 1000 to 10000 nM and more than 10 µM, respectively.
For `CCS(=O)(=O)Nc1ccc(-c2nn(C)c3c(-c4cnn(CCOCCOCC(=O)N[C@H](C(=O)N5C[C@H](O)C[C@H]5C(=O)NCc5ccc(-c6scnc6C)cc5)C(C)(C)C)c4)cnc(N)c23)cc1` [Compound 1019, (2S,4R)-1-[(2S)-2-{2-[2-(2-{4-[4-amino-3-(4-ethanesulfonamidophenyl)-1-methyl-1H-pyrazolo[4,3-c]pyridin-7-yl]-1H-pyrazol-1-yl}ethoxy)ethoxy]acetamido}-3,3-dimethylbutanoyl]-4-hydroxy-N-{[4-(4-methyl-1,3-thiazol-5-yl)phenyl]methyl}pyrrolidine-2-carboxamide], in that order: 10 to 1000 nM, 1000 to 10000 nM and more than 10 µM.
For `CCS(=O)(=O)Nc1ccc(-c2nn(C)c3c(-c4cnn(CCCCCCC(=O)N[C@H](C(=O)N5C[C@H](O)C[C@H]5C(=O)NCc5ccc(-c6scnc6C)cc5)C(C)(C)C)c4)cnc(N)c23)cc1` [Compound 1020, (2S,4R)-1-[(2S)-2-(7-{4-[4-amino-3-(4-ethanesulfonamidophenyl)-1-methyl-1H-pyrazolo[4,3-c]pyridin-7-yl]-1H-pyrazol-1-yl}heptanamido)-3,3-dimethylbutanoyl]-4-hydroxy-N-{[4-(4-methyl-1,3-thiazol-5-yl)phenyl]methyl}pyrrolidine-2-carboxamide], in that order: 10 to 1000 nM, less than 1000 nM and more than 10 µM.
Consider `Cc1ncsc1-c1ccc(CNC(=O)[C@@H]2C[C@@H](O)CN2C(=O)[C@@H](NC(=O)COCCOCCn2cc(-c3cnc(N)c4c(-c5ccc(NS(=O)(=O)C(F)F)cc5)nn(C)c34)cn2)C(C)(C)C)cc1` [Compound 1021], for which the Kd at human MLKL (full length) was less than 10 nM. The IC50 was 1000 to 10000 nM in test [1] and more than 10 µM in the test on U937 cells.
`CCS(=O)(=O)Nc1ccc(-c2nn(C)c3c(-c4cnn(CCOCCOCC(=O)N[C@H](C(=O)N5C[C@H](O)C[C@H]5C(=O)NCc5ccc(-c6scnc6C)cc5)C(C)(C)C)c4)cnc(C)c23)cc1F` [Compound 1029, (2S,4R)-1-[(2S)-2-{2-[2-(2-{4-[3-(4-ethanesulfonamido-3-fluorophenyl)-1,4-dimethyl-1H-pyrazolo[4,3-c]pyridin-7-yl]-1H-pyrazol-1-yl}ethoxy)ethoxy]acetamido}-3,3-dimethylbutanoyl]-4-hydroxy-N-{[4-(4-methyl-1,3-thiazol-5-yl)phenyl]methyl}pyrrolidine-2-carboxamide]: the IC50 in test [1] was less than 1000 nM; in the test on U937 cells it was more than 10 µM.
Take `Cc1ncsc1-c1ccc(CNC(=O)[C@@H]2C[C@@H](O)CN2C(=O)[C@H](NC(=O)C2(F)CC2)C(C)(C)C)c(OCCCCCCCn2cc(-c3cnc(N)c4c(-c5ccc(NS(=O)(=O)C(F)F)c(O[C@@H](C)c6ccc(F)cc6)c5)nn(C)c34)cn2)c1` [Compound 1030, (2S,4R)—N-[(2-{[7-(4-{4-amino-3-[4-(difluoromethanesulfonamido)-3-[(1S)-1-(4-fluorophenyl)ethoxy]phenyl]-1-methyl-1H-pyrazolo[4,3-c]pyridin-7-yl}-1H-pyrazol-1-yl)heptyl]oxy}-4-(4-methyl-1,3-thiazol-5-yl)phenyl)methyl]-1-[(2R)-2-[(1-fluorocyclopropyl)formamido]-3,3-dimethylbutanoyl]-4-hydroxypyrrolidine-2-carboxamide]: at human MLKL (full length), the Kd is 10 to 1000 nM. The IC50 in test [1] was less than 1000 nM; in the test on U937 cells it was more than 10 µM.
